According to US4581847A, “Tryptophan overproducer mutants of cereal crops” (Molecular Genetics Research and Development, priority 1984, dated 1986):
Where two headings read alike, the source gives them in different places.

Tests used:
[1] = tested on: maize line C28 callus; experiment: Four week callus growth inhibition study, resistant line C28; assay type: cell-based
Experimental: (§1) The tryptophan analog, 5-methyltryptophan (5MT), was used for selection of tryptophan overproducer mutants as discussion in Section 5 supra. The effect of various concentrations of 5MT on callus growth on solid media was determined. Quantities of tissue averaging 50 mg in size were transferred to nutrient agar maintenance media containing 5MT concentrations ranging from 1.0 to 200 μM. Four tissue pieces were placed on each plate with four plates per analog concentration. After 28 days growth, the tissue was weighed again.
For each transfer all tissue showing growth and somatic embryo forming ability were placed on fresh media. At the third transfer, the concentration of 5MT was increased to 100 μM. During the course of the selection process, the total number of lines decreased as the analog mediated growth inhibition became more intense. Two lines however, increased in size and by the end of the fourth month of selection were identified as resistant to 5MT. These cell lines were identified as maize line C28 and C66. […]
Four week growth inhibition studies were carried out with 5MT as described supra. The level of 5MT giving 50% growth inhibition was determined to be between 300 and 400 μM for the C28 line compared to 3 to 10 μM for unselected parent tissue. […]

[2] = tested on: anthranilate synthase (crude callus extracts: AB108 control, K17 line of C28); experiment: Anthranilate synthase assay with 5MT as enzyme inhibitor; assay type: biochemical, maize; conditions: 30° C., 30 minutes, 0.25 mM chorismate, 20 mM L-glutamine; FIG. 4
Experimental: Assays were conducted to determine whether 5MT resistance was conferred by an alteration in the gene that codes for the anthranilate synthase enzyme. Crude enzyme extract of AB108 control callus and the selected K17 line of C28 callus were prepared as described below. The K17 line of C28 was derived from a regenerated C28 plant crossed with a control plant and then self-pollinated. Immature embryos were then cultured and a callus line developed as described previously.
Plant callus tissue was ground using a mortar and pestle and extracted with 0.2 M Tris-HCl, pH 8.2, 60% glycerol, 0.2 mM dithiothreitol (DTT), 0.2 mM ethylenediaminetetraacetic acid (EDTA), 1.0 mM magnesium sulfate (MgSO4), 20 mM sodium chloride (NaCl) and 1.0 mM L-tryptophan. One ml extraction buffer was used per 2 g callus. The extract was centrifuged at 10,000×g for 25 minutes at 4° C. The supernatant was applied to a 3 cm×15 cm Bio Gel-P6 column (Bio-Rad, Richmond, Calif.) equilibrated with 0.1 M Tris-HCl, pH 7.6, 10% glycerol, 0.1 mM DTT and 0.1 mM EDTA and eluted with the same buffer. 0.75 ml fractions were collected and fractions containing protein were pooled. […]
Assays were conducted in 1 ml volumes as follows. […] The fluorescence due to the production of anthranilate was measured in the 3.5 ml extractant using a Kratos FS950 fluorimeter (Kratos Analytical Instruments, Ramsey, N.J.).

[3] = tested on: maize callus tissue (unselected parent, A188 x B73); experiment: Callus culture growth inhibition by 5MT, unselected parent tissue; assay type: cell-based; conditions: for IC50: Zea mays, 672 h
Experimental: Friable, embryogenic maize callus cultures were initiated from hybrid immature embryos produced by pollination of inbred line A188 plants (University of Minnesota, Crop Improvement Association) with pollen of Inbred line B73 plants (Iowa State University). Ears were harvested when embryos had reached a length of 1.5 to 2.0 mm. The whole ear was surface sterilized in […] commercial bleach (2.63% w/v sodium hypochlorite) for 20 minutes at room temperature. The ears were then washed with sterile distilled, deionized water. Immature embryos were aseptically isolated and placed on nutrient agar initiation/maintenance media with the root/shoot axis exposed to the media. Initiation/maintenance media consisted of N6 basal media (Chih-ching in Proceedings of Symposium on Plant Tissue Culture, May 25-30, 1978, Science Press, Peking, pp. 43-50) with 2% (w/v) sucrose, 1.5 mg per liter 2,4-dichlorophenoxyacetic acid (2,4-D), 6 mM proline, and 0.9% (w/v) agar.
The immature embryos were incubated at 26° C. in the dark. Cell proliferations from the scutellum of the immature embryos were evaluated for friable consistency and the presence of well defined somatic embryos. Tissue with this morphology was transferred to fresh media 10 to 14 days after the initial plating of the immature embryos. The tissue was then subcultured on a routine basis every 12 to 16 days. Sixty to eighty milligram quantities of tissue were removed from pieces of tissue that had reached a size of approximately one gram and transferred to fresh media. Subculturing always involved careful visual monitoring to be sure that only tissue of the correct morphology was maintained. The presence of the somatic embryos ensured that the cultures would give rise to plants under the proper conditions.
as §1

[4] = tested on: maize line C66 callus; experiment: Callus growth inhibition study, resistant line C66; assay type: cell-based; conditions: C66, 5MT at 100 μM or below
Experimental: as §1
For each transfer all tissue showing growth and somatic embryo forming ability were placed on fresh media. At the third transfer, the concentration of 5MT was increased to 100 μM. During the course of the selection process, the total number of lines decreased as the analog mediated growth inhibition became more intense. Two lines however, increased in size and by the end of the fourth month of selection were identified as resistant to 5MT. These cell lines were identified as maize line C28 and C66. […] Throughout this selection process, the selected cell lines maintained a friable appearance that was similar to the appearance of the original parent cell line.

SMILES	Growth inhibition by the analog compared to parental cell line AB1 (FIG. 2) ([1]; C28, 5MT at 100 μM or below)	IC50 ([1]; Zea mays, 672 h, C28 line, four week growth inhibition, read-out: Level of 5MT giving 50% growth inhibition)	Fold higher 5MT level needed for 50% inhibition of C28 AS compared with control AS [2]	IC50 ([3]; callus on solid maintenance media, 28 days growth, 1.0 to 200 μM 5MT, read-out: 5MT concentration giving half maximal inhibition of growth rate)	IC50 ([3]; unselected parent tissue, four week growth inhibition, read-out: Level of 5MT giving 50% growth inhibition)	Cell death ([3]; analog concentrations of 100 and 200 μM, 28 days)	Growth inhibition by the analog compared to parental cell line AB1 (FIG. 2) [4]	Reversal of growth inhibitory effects of 5MT ([3]; tryptophan added to 5MT-inhibited callus)
Cc1ccc2[nH]cc(C[C@H](N)C(=O)O)c2c1 [5MT, 5-methyltryptophan]	no longer seriously inhibited	300 to 400 µM	10 fold	3 to 10 µM	3 to 10 µM	Cell death was observed	no longer seriously inhibited	–
N[C@@H](Cc1c[nH]c2ccccc12)C(=O)O [Tryptophan]	–	–	–	–	–	–	–	reverse all the growth inhibitory effects of 5MT
